The values below come from US5914319A, “Antithrombotic agents” (Eli Lilly and Company, priority 1995, dated 1999).

Holding throughout (format): biochemical
Assay [1] relates to Human plasma. Kind of assay: Human plasma anticoagulation, thrombin time (TT). Conditions: concentration required to double the thrombin time, linear extrapolation. On the procedure:
(§1) Dog plasma and rat plasma is obtained from conscious mixed-breed hounds (either sex, Hazelton-LRE, Kalamazoo, Mich., U.S.A.) or from anesthetized male Sprague-Dawley rats (Harlan Sprague-Dawley, Inc., Indianapolis, Ind., U.S.A.) by venipuncture into 3.8 percent citrate. Fibrinogen is prepared from in-date ACD human blood as the fraction I-2 according to previous procedures and specifications. […] Human fibrinogen is also purchased as 98 percent pure/plasmin free from American Diagnostica, Greenwich, Conn. Coagulation reagents ACTIN, Thromboplastin, and Human plasma are from Baxter Healthcare Corp., Dade Division, Miami, Fla. Bovine thrombin from Parke-Davis ([…], Mich.) is used for coagulation assays in plasma.
(§2) Coagulation assay procedures are as previously described. […] A CoAScreener coagulation instrument (American LABor, Inc.) is used for all coagulation assay measurements. The prothrombin time (PT) is measured by adding 0.05 mL saline and 0.05 mL Thromboplastin-C reagent to 0.05 mL test plasma. The activated partial thromboplastin time (APTT) is measured by incubation of 0.05 mL test plasma with 0.05 mL Actin reagent for 120 seconds followed by 0.05 mL CaCl2 (0.02M). The thrombin time (TT) is measured by adding 0.05 mL saline and 0.05 mL thrombin (10 NIH units/mL) to 0.05 mL test plasma. The compounds of Formula I are added to human or animal plasma over a wide range of concentrations to determine prolongation effects on the APTT, PT, and TT assays. Linear extrapolations are performed to estimate the concentrations required to double the clotting time for each assay.

Assay [2] deals with Human plasma. Description: Human plasma anticoagulation, activated partial thromboplastin time (APTT). The note with it: concentration required to double the APTT, linear extrapolation. On the procedure: as §1, §2
Assay [3] relates to Human plasma. Description: Human plasma anticoagulation, prothrombin time (PT). The note with it: concentration required to double the PT, linear extrapolation. On the procedure:
as §1, §2

Counter-ions that a name gives are not always drawn.

For the compound `N=C(N)N1CCC(CCNC(=O)[C@@H]2CCCN2C(=O)[C@@H](CC2CCCCC2)NCC(=O)O)CC1` [Example 57, HO2 CCH2 -D-Cha-Pro-4-NHCH2 CH2 -1-amidinopiperidine.HCl], the “Human Plasma Anticoagulation 2× Clotting time (ng/mL) TT” value in the assay on Human plasma [1] is given as 14 ng/mL. In the assay on Human plasma [2], the “Human Plasma Anticoagulation 2× Clotting time (ng/mL) APTT” value is 360 ng/mL. Moreover, the “Human Plasma Anticoagulation 2× Clotting time (ng/mL) PT” value with Human plasma [3] is 340 ng/mL.
On the same counts, the results for `Cl.O=C(O)CN[C@H](CC1CCCCC1)C(=O)N1CCC[C@H]1C(=O)NCC1=CCNCC1` [Example 58, HO2 CCH2 -D-Cha-Pro-4-NHCH2 -3,4-dehydropiperidine.HCl] are 710 ng/mL, 14,300 ng/mL and 11,400 ng/mL.
The corresponding values for `Cl.O=C(O)CN[C@H](CC1CCCCC1)C(=O)N1CCC[C@H]1C(=O)NCCC1=CCNCC1` [Example 59, HO2 CCH2 -D-Cha-Pro-4-NHCH2 CH2 -3,4-dehydropiperidine.HCl] are 420 ng/mL, 5,500 ng/mL and 7,000 ng/mL.
The corresponding values for `Cl.O=C(O)CN[C@H](CC1CCCCC1)C(=O)N1CCC[C@H]1C(=O)NCCCC1=CCNCC1` [Example 60, HO2 CCH2 -D-Cha-Pro-4-NHCH2 CH2 CH2 -3,4-dehydropiperidine.HCl] are 3,200 ng/mL, 22,200 ng/mL and 77,700 ng/mL.
As for `N=C(N)c1ccc(CNC(=O)[C@@H]2CCCN2C(=O)[C@@H](CC2CCCCC2)NCC(=O)O)nc1` [Example 66, HO2 CCH2 -D-Cha-Pro-2-NHCH2 -5-amidinopyridine.HCl], in the assay on Human plasma [1], the “Human Plasma Anticoagulation 2× Clotting time (ng/mL) TT” value is 7.9 ng/mL. Further, the “Human Plasma Anticoagulation 2× Clotting time (ng/mL) APTT” value in the assay with Human plasma [2] was 180 ng/mL. In the assay with Human plasma [3], the “Human Plasma Anticoagulation 2× Clotting time (ng/mL) PT” value is 270 ng/mL.
The corresponding values for `N=C(N)C1CCC(CNC(=O)[C@@H]2CCCN2C(=O)[C@@H](CC2CCCCC2)NCC(=O)O)NC1` (stereo partly drawn) [Example 67, HO2 CCH2 -D-Cha-Pro-2-NHCH2 -5-amidinopiperidine.HCl] are 34. ng/mL, 1,800 ng/mL and 1,300 ng/mL.
The corresponding values for `Cl.N=C(N)C1=CNC(CNC(=O)[C@@H]2CCCN2C(=O)[C@@H](CC2CCCCC2)NCC(=O)O)CC1` (stereo partly drawn) [Example 68, HO2 CCH2 -D-Cha-Pro-2-NHCH2 -5-amidino-5,6-dehydro-piperidine.HCl] are 4. ng/mL, 49 ng/mL and 190 ng/mL.
For the compound `Cl.N=C(N)c1ccc(CNC(=O)[C@@H]2CCCN2C(=O)[C@@H](CC2CCCCC2)NCC(=O)O)nn1` [Example 69, HO2 CCH2 -D-Cha-Pro-3-NHCH2 -6-amidinopyridazine.HCl], the “Human Plasma Anticoagulation 2× Clotting time (ng/mL) TT” value in the assay on Human plasma [1] is 5. ng/mL. The “Human Plasma Anticoagulation 2× Clotting time (ng/mL) APTT” value with Human plasma [2] is given as 110 ng/mL. The “Human Plasma Anticoagulation 2× Clotting time (ng/mL) PT” value in the assay on Human plasma [3] was 220 ng/mL.
On the same counts, the results for `Cl.N=C(N)N1CC=C(CNC(=O)[C@@H]2CCCN2C(=O)[C@@H](CC2CCCCC2)NCC(=O)O)CC1` [Example 70, HO2 CCH2 -D-Cha-Pro-4-NHCH2 -1-amidino-3,4-dehydro-piperidine.HCl] are 2 ng/mL, 160 ng/mL and 180 ng/mL.
The corresponding values for `Cl.N=C(N)c1ccc(CNC(=O)[C@@H]2CCCN2C(=O)[C@@H](CC2CCCCC2)NCC(=O)O)c(F)c1` [Example 71, HO2 CCH2 -D-Cha-Pro-4-NHCH2 -3-F-benzamidine.HCl] are 1 ng/mL, 89 ng/mL and 150 ng/mL.
The corresponding values for `Cl.N=C(N)c1cc(F)c(CNC(=O)[C@@H]2CCCN2C(=O)[C@@H](CC2CCCCC2)NCC(=O)O)c(F)c1` [Example 72, HO2 CCH2 -D-Cha-Pro-4-NHCH2 -3,5-F2 -benzamidine.HCl] are 1 ng/mL, 160 ng/mL and 160 ng/mL.
Regarding `Cl.Nc1cc(CNC(=O)[C@@H]2CCCN2C(=O)[C@@H](CC2CCCCC2)NCC(=O)O)ccn1` [Example 73, HO2 CCH2 -D-Cha-Pro-4-NHCH2 -2-aminopyridine.HCl], the “Human Plasma Anticoagulation 2× Clotting time (ng/mL) TT” value in the assay on Human plasma [1] is on record as 21 ng/mL. In addition, the “Human Plasma Anticoagulation 2× Clotting time (ng/mL) APTT” value in the assay on Human plasma [2] is reported as 340 ng/mL. The “Human Plasma Anticoagulation 2× Clotting time (ng/mL) PT” value with Human plasma [3] is on record as 330 ng/mL.
The corresponding values for `Cl.Nc1ccc(CNC(=O)[C@@H]2CCCN2C(=O)[C@@H](CC2CCCCC2)NCC(=O)O)cn1` [Example 74, HO2 CCH2 -D-Cha-Pro-5-NHCH2 -2-aminopyridine.HCl] are 20 ng/mL, 420 ng/mL and 350 ng/mL.
On the same counts, the results for `Cl.Nc1cc(CCNC(=O)[C@@H]2CCCN2C(=O)[C@@H](CC2CCCCC2)NCC(=O)O)ccn1` [Example 76, HO2 CCH2 -D-Cha-Pro-4-NHCH2 CH2 -2-aminopyridine.HCl] are 29 ng/mL, 490 ng/mL and 560 ng/mL.
On the same counts, the results for `Nc1ccc(CNC(=O)[C@@H]2CCCN2C(=O)[C@@H](CC2CCCCC2)NCC(=O)O)cc1F` [Example 77, HO2 CCH2 -D-Cha-Pro-4-NHCH2 -2-F-aniline.HCl] are 53 ng/mL, 1,600 ng/mL and 890 ng/mL.
As for `NCc1ccc(CNC(=O)[C@@H]2CCCN2C(=O)[C@@H](CC2CCCCC2)NCC(=O)O)cc1` [Example 78, HO2 CCH2 -D-Cha-Pro-4-NHCH2 C6 H4 CH2 NH2.HCl], the “Human Plasma Anticoagulation 2× Clotting time (ng/mL) TT” value in the assay on Human plasma [1] is 46 ng/mL. In addition, in the assay on Human plasma [2], the “Human Plasma Anticoagulation 2× Clotting time (ng/mL) APTT” value is reported as 430 ng/mL. Besides, in the assay on Human plasma [3], the “Human Plasma Anticoagulation 2× Clotting time (ng/mL) PT” value is reported as 760 ng/mL.
The corresponding values for `NCC1CCC(CNC(=O)[C@@H]2CCCN2C(=O)[C@@H](CC2CCCCC2)NCC(=O)O)CC1` (stereo partly drawn) [Example 79, HO2 CCH2 -D-Cha-Pro-4-NHCH2 C6 H10 CH2 NH2.HCl] are 140 ng/mL, 1,700 ng/mL and 2,400 ng/mL.
On the same counts, the results for `CCS(=O)(=O)N[C@H](CC1CCCCC1)C(=O)N1CCC[C@H]1C(=O)NCc1ccc(C(=N)N)cc1.Cl` [Example 80, EtSO2 -D-Cha-Pro-4-NHCH2 C6 H4 C(NH)NH2.HCl] are 4 ng/mL, 40 ng/mL and 130 ng/mL.
Consider `CCS(=O)(=O)N[C@H](CC1CCCCC1)C(=O)N1CCC[C@H]1C(=O)NCc1ccc(CN)cc1` [Example 81, EtSO2 -D-Cha-Pro-4-NHCH2 C6 H4 CH2 NH2.HCl], for which, in the assay with Human plasma [1], the “Human Plasma Anticoagulation 2× Clotting time (ng/mL) TT” value was 110 ng/mL. Moreover, in the assay with Human plasma [2], the “Human Plasma Anticoagulation 2× Clotting time (ng/mL) APTT” value is on record as 1,500 ng/mL. Besides, the “Human Plasma Anticoagulation 2× Clotting time (ng/mL) PT” value in the assay on Human plasma [3] is given as 2,700 ng/mL.
The corresponding values for `CCS(=O)(=O)N[C@H](CC1CCCCC1)C(=O)N1CCC[C@H]1C(=O)NCc1ccnc(N)c1.Cl` [Example 83, EtSO2 -D-Cha-Pro-4-NHCH2 -2-aminopyridine.HCl] are 91 ng/mL, 1,000 ng/mL and 1,300 ng/mL.
The corresponding values for `CCS(=O)(=O)N[C@H](CC1CCCCC1)C(=O)N1CCC[C@H]1C(=O)NCc1ccc(N)nc1.Cl` [Example 84, EtSO2 -D-Cha-Pro-5-NHCH2 -2-aminopyridine.HCl] are 110 ng/mL, 1,500 ng/mL and 1,900 ng/mL.
The corresponding values for `N=C(N)c1ccc(CNC(=O)[C@@H]2CCCN2C(=O)[C@@H](CC2CCCCC2)NCCCC(=O)O)cc1` [Example 85, HOOCCH2 CH2 CH2 -D-Cha-Pro-p-NHCH2 C6 H4 C(NH)NH2.HCl] are 4.9 ng/mL, 100 ng/mL and 197 ng/mL.
